Data published in the NIST ThermoML archive (doi:10.1016/j.jct.2008.01.014).
± gives the expanded uncertainty stated by the source.

Conditions: Liquid, Ebulliometric method (Recirculating still)

SMILES	vapor or sublimation pressure (273.15 K) [kPa]	vapor or sublimation pressure (288.15 K) [kPa]	vapor or sublimation pressure (303.15 K) [kPa]	vapor or sublimation pressure (318.15 K) [kPa]	vapor or sublimation pressure (333.15 K) [kPa]	vapor or sublimation pressure (348.15 K) [kPa]
C=C(C)C [2-methylpropene]	133 ± 2	224 ± 2	353 ± 2	538 ± 3	787 ± 4	1110 ± 5
CC(F)(F)F [1,1,1-trifluoroethane]	626 ± 3	972 ± 4	1442 ± 6	2063 ± 9	2875 ± 12	–
